Data set [1] relates to Bemisia tabaci imagoes. Nature of the data set: Indoor toxicity against Bemisia tabaci imagoes, liquid membrane impregnation method of blades. It counts as in vivo. The settings on record: for Relative toxicity: maximum LC50 divided by LC50 of each agent, acetamiprid = 1. As to the method: The liquid membrane impregnation method of blades was used. […] One tomato leaf was placed in each culture dish. Three repetitions per treatment, a leaf was soaked with water, dried, and then was placed in a culture dish to be used as a control. The Bemisia tabaci imagoes were gently patted into the culture dish, about 30 to 40 imagoes in each dish. The dishes were sealed with plastic wrap, several small holes were made on the plastic wrap to facilitate ventilation. After 24 hours, the death of Bemisia tabaci imagoes was checked under a binocular microscope (the anatomical needle was used to gently touch the Bemisia tabaci imagoes, and the motionless ones were regarded to be dead). Experimental data statistics and analysis were performed with spss 19 software.

Data set [2] has as its system zebrafish. In words: Toxicity test on zebrafish, semi-static method. In kind it is in vivo, Brachydanio rerio. As to the method: Test fish and water: zebrafish (Brachydanio rerio) were purchased from Zhejiang Academy of Agricultural Sciences and were of uniform size with an average body length of 2-3 cm and an average body weight of 0.3 g. They were domesticated for 7 days indoors before the test. The natural mortality rate was zero. Feeding was stopped 1 day before the test and the fish were not fed during the test. The test water was tap water after removing residual chlorine by exposure to the sun for more than 24 hours, and the pH was 6.8.
The sample was formulated into 50 mg/ml mother liquor with DMF.
Method: Semi-static method. Three level differences were set for each sample:
0.5 ppm, 1.0 ppm and 2.0 ppm, and three sets of parallels were set for each level difference, 10 zebrafish were raised for each group, and blank controls (one group without agents and one group with only solvent) were set. The corresponding volume of mother liquor was taken according to the concentration as required for each sample, and the volume of each sample was adjusted to 150 μl with DMF, and then each sample was added to the test group (containing 1.6 L of water). The room temperature was controlled at 22±2° C. for 96 hours, and the water was changed every 24 hours and the samples were re-added. The fish mortality rate was recorded for the first 8 hours and at 24, 48, 72, and 96 hours, and the dead fish were removed in time. Finally, the agents were divided into three grades according to the values of LC50: low-toxic pesticides with a LC50>10 ppm, middle-toxic pesticides with a LC50 of 1.0-10 ppm, and high-toxic pesticides with a LC50<1.0 ppm.

The test system of data set [3] is Laodelphax striatellus imagoes. In words: whole plant or invertebrate. The settings on record: for Relative toxicity: maximum LC50 divided by LC50 of each agent, imidacloprid = 1. On the procedure:
Each original medicine was dissolved in DMF and formulated into a 10000 mg/L solution for later use.
Test insect source: The Laodelphax striatellus imagoes were collected in the rice fields of Jiaxing, Zhejiang, and were raised indoors with rice seedlings.
The soaking seedling method was used in this test. The test agents were diluted with tap water into five series of concentrations on the basis of pre-test to be used as test solutions. Specifically, lambda-cyhalothrin and imidacloprid were diluted to 5 mg/L, 10 mg/L, 25 mg/L, 50 mg/L and 100 mg/L; abamectin was diluted to 0.25 mg/L, 0.5 Mg/L, 1.0 mg/L, 2.5 mg/L and 5.0 mg/L; tenvermectin A was diluted to 0.05 mg/L, 0.10 mg/L, 0.25 mg/L, 0.5 mg/L and 1.0 mg/L. Rice seedlings that are sown indoors for about 25 days and have no rice planthopper eggs were taken, a few rice roots were left, the seedlings were soaked in pre-formed solution for 30 seconds then they were taken out and dried, and were put into a 3 cm×20 cm test tube. There was a little water at the bottom of the tube. 2-3 rice seedlings per tube, three repetitions per treatment, and the one treated with water was used as a control. Each tube receives 40-50 heads of Laodelphax striatellus, and the tubes were sealed with black cloth and were placed in a worm room under a temperature of (26±1) ° C. After 72 hours of treatment, the number of dead insects was checked. […] Experimental data statistics and analysis were performed using spss 19 software.
The relative toxicity index of the agent having the largest LC50 was set to be 1, and the relative toxicity index of each agent was determined by dividing the maximum LC50 by the LC50 value of each agent.

For data set [4], the system named is Nilaparvata lugens imagoes. In words: Indoor toxicity against Nilaparvata lugens imagoes, soaking seedling method. In kind it is in vivo. The following applies: for LC50: Nilaparvata lugens imagoes, soaked rice seedlings, 72 hours, 26±1 °C; for Relative toxicity: maximum LC50 divided by LC50 of each agent, imidacloprid = 1. The text has this: Test insect source: the Nilaparvata lugens imagoes were collected from the rice field in Jiaxing, Zhejiang and were raised indoors with rice seedlings.
The soaking seedling method was used in this test.

The test system of data set [5] is Frankliniella occidentalis Pergande imagoes. In words: Indoor toxicity against Frankliniella occidentalis Pergande imagoes, impregnation method. In kind it is in vivo. The following applies: for LC50: Frankliniella occidentalis Pergande imagoes, impregnation, 48 hours after medication, 26 °C; for Relative toxicity: maximum LC50 divided by LC50 of each agent, imidacloprid = 1. The text has this:
The impregnation method was used. […] The quantitative Frankliniella occidentalis Pergande (15-20 heads) in the suction trap were flicked into the solution in the insect box, and the solution was gently stirred with a glass rod for 10 seconds, and the insect box was quickly removed from the solution, and when the solution was drained out from the insect box, the residual solution on the copper net was blotted with absorbent paper from the bottom of the insect box, and then a 3 cm long kidney bean slice (Frankliniella occidentalis Pergande feed) was put into the insect box, and finally the insect box was sealed with a parafilm. […] The sealed insect box was placed in a HPG280H light incubator under a temperature of 26° C. and a humidity of 70%.

Data set [6] deals with cabbage Phyllotreta. Nature of the data set: Field efficacy test against cabbage Phyllotreta. The settings on record: 1 day, 3 days and 7 days after medication. In kind it is in vivo. On the procedure:
In the laboratory, the above-mentioned original medicines were respectively formulated into the following formulations for later use: 1.8% abamectin emulsifiable concentrate, 1.8% tenvermectin A emulsifiable concentrate, 1.8% tenvermectin B emulsifiable concentrate, 5% imidacloprid emulsifiable concentrate, 5% acetamiprid emulsifiable concentrate, 2.5% lambda-cyhalothrin emulsifiable concentrate.
The test was conducted in Linhai City, and the test crop was cabbage, and the object to be controlled was Phyllotreta.
The experiment consisted of 7 treatments, 3 replicates per treatment, 21 sections in total. The sections were randomly arranged, the area for each section was 66.7 m^2. A type of knapsack manual sprayer was used to spray once, the amount of each section was calculated according to the amount of 50 ml/mu, and the leaves were sprayed evenly. Each treatment was isolated from each other to avoid mutual interference. A blank control was set, and the blank control was sprayed with water. The population base of insects was investigated before medication, and the number of live insects was investigated 1 day, 3 days, and 7 days after medication, and a total of 4 investigations were conducted. 20 plants were randomly investigated per section. The rate of reduction of population was calculated and the control effect was corrected. No other pesticides were used during the test. […]

Data set [7] concerns Coptotermes formosanus Shiraki. Nature of the data set: Indoor toxicity against Coptotermes formosanus Shiraki, topical drop with microinjector. The following applies: for Relative toxicity: maximum LC50 divided by LC50 of each agent, abamectin = 1. It counts as in vivo. As to the method: Specifically, abamectin was diluted to 0.01 mg/L, 0.025 mg/L, 0.05 mg/L, 0.10 mg/L and 0.25 mg/L; tenvermectin A and tenvermectin B were diluted to 0.001 mg/L, 0.0025 mg/L, 0.005 mg/L, 0.01 mg/L and 0.025 mg/L. The termites to be tested were placed in culture dishes with a diameter of 15 cm, and 20 worker ants were placed in each dish. During the test, a microinjector was used to drop 1 μI of the solution to the thorax and abdome of each termite for a total of 3 repetitions. One fungus comb was placed in each dish for termites to inhabit and a wet absorbent cotton ball was placed to moisturize. After completing dropping the solution, the culture dish was placed in a chamber under a constant temperature of 18±1° C. and a constant humidity and was cultivated in dark conditions, the death conditions were observed 24 hours and 48 hours after dropping the solution respectively. A writing brush was used to touch the various parts of the bodies of the termites and the termites that are completely immobile were judged to be dead.

[8] abbreviates: Laodelphax striatellus, in Oryza sativa, 72 h.

≈ marks a conversion by molar mass, not a printed value. Where two headings read alike, the source gives them in different places.

The values that follow come from patent US20190116795A1, “USE OF TENVERMECTIN IN CONTROL OF HARMFUL INSECTS IN AGRICULTURAL AND FOREST CROPS” (ZHEJIANG HISUN PHARMACEUTICAL CO., LTD., priority 2016, published 2019).

Milbemycin: in data set [1] (in vivo), the LC50 was 0.210 mg/L. In data set [1], this molecule gave a Relative toxicity of 12.100. The “Surviving condition (survival rate %)” value in data set [2] (0.5 ppm, 8 h) is 0%; in data set [2] (1.0 ppm, 8 h), 0%; in data set [2] (2.0 ppm, 8 h), 0%.
On to `O=[N+]([O-])NC1=NCCN1Cc1ccc(Cl)nc1` [Imidacloprid], for which the LC50 was 31.8 µg/mL (≈ 124 µM) in data set [3] (setting [8]), 33.9 µg/mL (≈ 132 µM) in data set [4] (read-out: LC50) and 39.1 mg/L (≈ 153 µM) in data set [5] (read-out: LC50). In addition, the Relative toxicity in data set [3], in data set [4] and in data set [5] was 1 throughout.
Ivermectin: the “Surviving condition (survival rate %)” value is given as 0% in data set [2] (0.5 ppm, 8 h); 0% in data set [2] (1.0 ppm, 8 h); 0% in data set [2] (2.0 ppm, 8 h).
With `CC[C@H]1O[C@]2(CCC1C)C[C@@H]1C[C@@H](C/C=C(\C)C(OC3C[C@H](OC)C(OC4C[C@H](OC)C(O)[C@H](C)O4)[C@H](C)O3)C(C)/C=C/C=C3\CO[C@@H]4[C@H](O)C(C)=C[C@@H](C(=O)O1)[C@]34O)O2` (stereo partly shown) [Tenvermectin B, tenvermectin B], the “control effect on cabbage Phyllotreta (in words)” value in data set [6] was “no control effect”. Further, the LC50 in data set [7] (in vivo) was 0.0066 mg/L (≈ 0.00779 µM). The Relative toxicity in data set [7] turned out to be 6.21. For the same molecule, the “Surviving condition (survival rate %)” value in data set [2] (0.5 ppm, 8 h) was determined as 100%; in data set [2] (0.5 ppm, 24 h) it was 70%; in data set [2] (0.5 ppm, 48 h), 50%; in data set [2] (0.5 ppm, 72 h) it was 0%; in data set [2] (1.0 ppm, 8 h) it was 53%; in data set [2] (1.0 ppm, 24 h), 0%. Further, the “Surviving condition (survival rate %)” value in data set [2] (2.0 ppm, 8 h) turned out to be 10%; in data set [2] (2.0 ppm, 24 h), 0%.
Turning to `CC[C@H](C)C1O[C@]2(C=C[C@@H]1C)C[C@@H]1C[C@@H](C/C=C(\C)[C@@H](O[C@H]3C[C@H](OC)[C@@H](O[C@H]4C[C@H](OC)[C@H](NC)[C@H](C)O4)[C@H](C)O3)[C@@H](C)/C=C/C=C3\CO[C@@H]4[C@H](O)C(C)=C[C@@H](C(=O)O1)[C@]34O)O2.O=C(O)c1ccccc1` (stereo partly shown) [Methylamino abamectin benzoate], the LC50 in data set [5] is given as 0.318 mg/L. Also, in data set [5], the Relative toxicity is 122.896. The “Surviving condition (survival rate %)” value in data set [2] (0.5 ppm, 8 h) was 0%; in data set [2] (1.0 ppm, 8 h), 0%; in data set [2] (2.0 ppm, 8 h) it was 0%.
In the case of `C/C(=N\C#N)N(C)Cc1ccc(Cl)nc1` [Acetamiprid], the median lethal concentration (LC50) in data set [1] (Bemisia tabaci, in Solanum lycopersicum, 24 h) is 2.54 mg/L (≈ 11.4 µM). In data set [1], this molecule gave a Relative toxicity of 1.
Take `CC1(C)[C@H](C(=O)O[C@H](C#N)c2cccc(Oc3ccccc3)c2)[C@@H]1/C=C(\Cl)C(F)(F)F` (racemic) [Lambda-cyhalothrin]: the LC50 in data set [3] (setting [8]) stood at 12 µg/mL (≈ 26.7 µM); in data set [4] (read-out: LC50) it was 17.7 µg/mL (≈ 39.4 µM). The Relative toxicity amounted to 2.648 in data set [3] and 1.923 in data set [4].
As to Abamectin, the LC50 in data set [1] (Bemisia tabaci imagoes, soaked tomato leaves, death checked after 24 hours) is 0.225 mg/L; in data set [3] (Laodelphax striatellus imagoes, soaked rice seedlings, 72 hours, 26±1 °C), 3.101 µg/mL; in data set [4], 3.062 µg/mL; in data set [7] (Coptotermes formosanus worker ants, 1 μl dropped per termite, 18±1 °C, observed 24 and 48 hours (time of LC50 not stated)) it was 0.041 mg/L; in data set [5] it was 2.648 mg/L. In addition, the Relative toxicity in data set [1] is 11.293; in data set [3] it was 10.260; in data set [4], 11.063; in data set [7] it was 1; in data set [5] it was 14.759. The “Surviving condition (survival rate %)” value is recorded as 0% in data set [2] (0.5 ppm, 8 h); 0% in data set [2] (1.0 ppm, 8 h); 0% in data set [2] (2.0 ppm, 8 h).
